Laboratory results from article PMC13339814 (Microbiology Spectrum, 2026).
“Also recorded” adds a separate entry of the source. Where no end group is shown, it is not given here. The star is where a group is joined. pNA = O=[N+]([O-])c1ccc(N*)cc1; Cbz = O=C(OCc1ccccc1)*

Experiments:
PSP692 [1] = experiment: purified PSP692 (1 µM) in 1× phosphate-buffered saline (PBS) at pH 6.0; details: Segatella copri, 37°C
PSP464 [2] = experiment: purified PSP464 (1 µM) in 100 mM glycine-HCl buffer at pH 4.0; details: Stenotrophomonas maltophilia, 37°C
PSP464 [3] = experiment: HRMS analysis of 11-mer gliadin peptide degradation by PSP464; type: in vitro ADME, Stenotrophomonas maltophilia
Protocol: Gliadin degradation reactions were performed in duplicate for PSP464 activity on the 11-mer and PSP692 activity on the 33-mer at time points of 30 min, 1 h, 2 h, and 4 h. Following incubation, duplicate reactions were pooled prior to downstream processing to minimize technical variability. Reactions were quenched by the addition of trifluoroacetic acid (TFA) in water to a final concentration of 0.1% (vol/vol). To remove intact enzyme and retain low-molecular-weight degradation products, samples were centrifuged through Microcon centrifugal filter units with a 10 kDa MWCO at room temperature for 30 min. The filtrate, containing peptides <10 kDa, was collected and subjected to C18 ZipTip protocol for desalting prior to LC-MS/MS analysis. The elution solvent for desalting was 50% acetonitrile with 0.1% formic acid in water.
Samples were analysed on a Bruker IMPACT HD mass spectrometer in HRMS mode. MS scans were acquired over an m/z range of 50–3,500 at high resolution in positive ion mode. Raw data were processed in MZMine v3.9 ([38]), and the fragment list was exported as an Excel list followed by manual annotation. Chromatograms were generated for identified gliadin-derived peptides across the time course.

[4] = system: human gastrointestinal proteases; experiment: human gastrointestinal proteases; details: cited from earlier work
PSP692 [5] = experiment: purified recombinant PSP692 in pH 6 PBS buffer; details: Segatella copri, 37°C, up to 4 h

With Cbz-Gly-Pro-pNA as the substance, how does the cleaved bond (PSP692 [1]) read?
The cleaved bond was “Pro-pNA”.

With Cbz-Pro-Pro-Phe-pNA as the substance, how does the cleaved bond (PSP464 [2]) read?
Its cleaved bond is “Phe-pNA”.

Which results are given for GPQQSFPEQEA [11-mer]?
intensity of parent peak (m/z ~1,218, +1) after incubation with PSP464 (PSP464 [3]; all digestion time points, 30 min to 4 h, pooled duplicates): reduced; peptide fragments formed from 11-mer by PSP464 (m/z 998 and 872) (PSP464 [3]; sequential C-terminal cleavage, sequences assigned from m/z): GPQQSFPEQ and GPQQSFPE

With LQLQPFPQPQLPYPQPQLPYPQPQLPYPQPQPF as the substance, how does the not cleaved [4] read?
Its not cleaved is “evades degradation by human gastrointestinal proteases”.

And the fragment found (PSP692 [5])?
The fragment found was “LQLQP, major, 30 min; also recorded: QPFPQ; also recorded: QLQPFP, major, 30 min”.
